According to patent US20130012709A1, “NOVEL INHIBITORS OF STEAROYL-CoA-DESATURASE-1 AND THEIR USES” (CENTRE NATIONAL DE LA RECHERCHE SCIENTIFIQUE, priority 2009, published 2013):
Where two headings read alike, the source gives them in different places.

Experiments:
C4-2 cells [1] = assay: Flow cytometry analysis of cell cycle; format: cell-based, human; conditions: CaP cells (C4-2); with a decrease in the S phase
Experimental: (§1) Cells were then rinsed in PBS, pelleted at 400 g for 5 min and maintained on ice for 20 min before resuspension in a […] propidium iodide (Sigma) solution. Cells were kept overnight at 4° C. and the percentages of cells in G1, S and G2-M phases of the cell cycle were measured with a Coulter Epics XL™ flow cytometer (Becton Dickinson) using 488-nm laser excitation. For apoptosis experiment, MEFs were treated with the tested compound at 25 μM for 24 h, then rinced in PBS, pelleted at 400 g for 5 min and stained with annexinV-FITC (Roche Diagnostics, Meylan, France) for 15 min at 4° C. The percentage of annexin positive cells was immediately analysed using 488-nm laser excitation.

LNCaP cells [2] = assay: Flow cytometry analysis of cell cycle; format: cell-based, human; conditions: CaP cells (LNCaP); with a decrease in the S phase
Experimental: as §1

C4-2 cells [3] = assay: Proliferation assay (cell counting); format: cell-based, human; conditions: C4-2, maximal dose used
Experimental: (§2) At 24 h, 48 h, 72 h and 96 h following addition of increasing concentrations of the tested compound in DMSO or DMSO alone, cells were trypsinized, pelleted by centrifugation at 1200 rpm for 5 min, resuspended in 500 μl of culture medium and counted in an hemocytometer.

LNCaP cells [4] = assay: Proliferation assay (cell counting); format: cell-based, human; conditions: maximal dose used
Experimental: as §2

PNT2 cells = assay: Proliferation assay (cell counting); format: cell-based, human; conditions: non-cancerous PNT2, even at a maximal dose
Experimental: as §2

C4-2 cells [5] = assay: Measurement of de novo fatty acid synthesis; format: cell-based; conditions: Homo sapiens, C4-2, 25 μM
Experimental: (§3) The tested inhibitor was added overnight at a final concentration of 25 μM to subconfluent cultures of cells grown in 6-wells plate in serum and fatty acid-free DMEM media supplemented with 0.2% BSA. Cultures were then labeled in triplicate with 1.0 μCi of [U—^14C]-palmitate or -stearate for 6 h, and total lipids were folch extracted with chloroform/methanol. Labeled lipids were subjected to TLC in hexane/diethyl ether/acetic acid 90:10:1 (V/V), to separate cholesterol ester, triglycerides and phospholipids. Standards were run for each of the lipid classes. After chromatography, labeled lipid classes were quantified by scintillation counting and radioactivity was normalized to DNA content.

LNCaP cells [6] = assay: Measurement of de novo fatty acid synthesis; format: cell-based; conditions: Homo sapiens
Experimental: as §3

C4-2 cells [7] = assay: Phospho-kinase array and immunoblot; format: cell-based, human
Experimental: (§4) Protein extracts and sodium dodecyl sulfate (SDS)-polyacrylamide gel electrophoresis (PAGE), electrotransfer and immunoblotting were performed as previously described (34). The primary antibodies rabbit anti-AMPK, rabbit anti-phospho AMPK (Thr172), rabbit anti-Akt and rabbit anti-phospho Akt were purchased from Cell signalling Technology (Ozyme, Saint Quentin Yvelines, France). The primary antibody mouse anti-tubulineα was purchased from Lab Vision (Thermo Fisher Scientific, Microm France, Francheville, France). The primary antibodies rabbit anti-p44/p42 MAPK, rabbit anti-phospho p44/p42 MAPK (Thr202/Tyr204), mouse anti-GSK3α/β, and rabbit anti-phospho GSK3α/β were kindly provided by Dr Gilles Freiss. LNCaP and C4-2 cells treated with the tested compound at 25 μM were analyzed for the relative phosphorylation of 46 kinase phosphorylation sites using human phospho-kinase array kit (Proteome Profiler™) according to the manufacturers' recommendations (R&D systems Europe, Lille, France).

LNCaP cells [8] = assay: Phospho-kinase array and immunoblot; format: cell-based, human
Experimental: as §4

C4-2 cells [9] = assay: PI(3,4,5)P3 mass ELISA; format: cell-based, human; conditions: C4-2, 25 μM, 24 h, vs non-treated cells
Experimental: (§5) The production of PI(3,4,5)P3 (PIP3) in LNCaP and C4-2 prostate cancer cells was measured 24 h following exposure to control medium or to medium supplemented with the inhibitor tested at 25 μM. The levels of produced PIP3 were quantified after cellular lipids extraction using a PI(3,4,5)P3 mass ELISA kit according to the manufacturer's instruction.

LNCaP cells [10] = assay: PI(3,4,5)P3 mass ELISA; format: cell-based, human; conditions: 25 μM, 24 h, vs non-treated cells
Experimental: as §5

[11] = test system: MEFs transformed by HaRasV12 and SV40 Large T; assay: Proliferation of MEFs; format: cell-based, mouse
Experimental: (§6) Primary MEFs were obtained from embryos at embryonic day 13.5 by standard methods.
(§7) Monolayer cell cultures were grown in Dulbecco's Modified Eagle's Medium (DMEM) supplemented with 25 mM glucose and 10% FCS.
as §2

normal MEFs (WT) = assay: Proliferation of MEFs; format: cell-based, mouse; conditions: slowly growing normal MEFs (WT)
Experimental: as §6, §7, §2

[12] = test system: p53−/− MEFs transformed by HaRasV12; assay: Proliferation of MEFs; format: cell-based, mouse; conditions: p53−/− MEFs fully transformed by HaRasV12
Experimental: as §6, §7, §2

[13] = read-out: inhibition of [U-14C]-palmitate incorporation into phospholipids
[14] = read-out: inhibition of [U-14C]-palmitate incorporation into sterol esters
[15] = read-out: inhibition of [U-14C]-palmitate incorporation into triglycerides
[16] = read-out: inhibition of [U-14C]-stearate incorporation into phospholipids
[17] = read-out: inhibition of [U-14C]-stearate incorporation into sterol esters
[18] = read-out: inhibition of [U-14C]-stearate incorporation into triglycerides

For `COc1ccc(Br)c(C(=O)N2CCN(c3ccc(C(=O)NCCCc4ccccc4)cn3)CC2)c1` [BZ36], the cell cycle distribution (C4-2 cells [1]) was “accumulation of cells in the G0/G1 phase”, the cell cycle distribution (LNCaP cells [2]) was “accumulation of cells in the G0/G1 phase” and the “inhibition of cell proliferation” value (C4-2 cells [3]) was 100%. For the same compound, the “inhibition of cell proliferation” value (LNCaP cells [4]) was 100%, the effect in proliferation (PNT2 cells) was “no effect” and the inhibition at 25 µM (C4-2 cells [5]; [13]) was 41%. The inhibition at 25 µM (C4-2 cells [5]; [14]) was 33%, the inhibition at 25 µM (C4-2 cells [5]; [15]) was 24% and the inhibition at 25 µM (C4-2 cells [5]; [16]) was 49%. For the same compound, the inhibition at 25 µM (C4-2 cells [5]; [17]) was 70%, the inhibition at 25 µM (C4-2 cells [5]; [18]) was 19% and the inhibition at 25 µM (LNCaP cells [6]; [13]) was 58%. The inhibition at 25 µM (LNCaP cells [6]; [14]) was 39%, the inhibition at 25 µM (LNCaP cells [6]; [15]) was 27% and the inhibition at 25 µM (LNCaP cells [6]; [16]) was 81%. For the same compound, the inhibition at 25 µM (LNCaP cells [6]; [17]) was 77%, the inhibition at 25 µM (LNCaP cells [6]; [18]) was 78% and the “phosphorylation of GSK3a/13” value (C4-2 cells [7]; C4-2) was “abrogated”. For the same compound, the “phosphorylation of AMPKcc” value (C4-2 cells [7]; C4-2, 25 μM) was “increased”, the “Akt phosphorylation (5473/T308)” value (C4-2 cells [7]; C4-2, 25 μM, vs non-treated cells) was “decrease” and the “phosphorylation of ERK1/2” value (C4-2 cells [7]; C4-2, immunoblot) was “decreased phosphorylation”. The “phosphorylation of MEK1/2 (S218/5222, S222/S226)” value (C4-2 cells [7]; C4-2, vs control cells) was “Significant decreases”, the “phosphorylation of GSK3a/13” value (LNCaP cells [8]) was “abrogated” and the “phosphorylation of AMPKcc” value (LNCaP cells [8]; 25 μM) was “increased”. The “Akt phosphorylation (5473/T308)” value (LNCaP cells [8]; 25 μM, vs non-treated cells) was “decrease”, the “phosphorylation of ERK1/2” value (LNCaP cells [8]; immunoblot) was “decreased phosphorylation” and the “decrease of PI(3,4,5)P3 concentration” value (C4-2 cells [9]) was 92%. The “decrease of PI(3,4,5)P3 concentration” value (LNCaP cells [10]) was 84%, the proliferation index [11] was “strongly decreased” and the proliferation index (normal MEFs (WT)) was “only moderately reduced”. The proliferation [12] was “efficiently blocked”.
